Experimental data published in patent publication US9446084B2, “Use of free radical scavengers for protecting and treating skin and hair damages caused by chemotherapy” (Coty Prestige Lancaster Group GmbH, priority 2005, dated 2016).

Tests used:
[1] = RPF 'is known'; cited from earlier work
[2] = Radical protection factor (RPF) by electron spin resonance (ESR) against a test radical; type: biochemical
Description: S2=signal amplitude of the antioxidant.
As has already been described, the radical protection factor (RPF) determines the activity of a substance for binding free radicals against a test substance. This test substance consists of a highly reactive, semi-stable radical which reacts with all known antioxidation agents. Such radicals include nitroxides such as proxo (2.2,5.5-tetramethyl-1-dihydropyrrolinoxy-nitroxide), tempol (2.2,6.6-tetramethyl-1-piperidinoxy-4-ol-nitroxide), DTBN (di-tert-butyl-nitroxide or preferably DPPH (1.1-diphenyl-2-picryl-hydrazyl.
The RPF is measured in such a way that the signal amplitudes of the test radical created by electron spin resonance (ESR/EPR) are measured before and after mixing with an antioxidation agent/scavenger, and the RPF is calculated from this.
Ind. […] Here, based on the known concentration of the test substance (here: DPPH) or the number of its free radicals (radicals per ml), a signal amplitude S1 is measured using an ESR spectrometer. The test radical is dissolved in the same way as the antioxidation agent in a (e.g. 0.1 m) water/alcohol solution. Then the signal amplitude S2 of the antioxidation agent is measured. The normalised difference between the two signal amplitudes is the reduction factor RF RF=(S1-S2)/S1. The result of the radical reduction of the test substance RC×RF is normalised in relation to the quantity of the product input PI (mg/ml). Here, the RC is the quantity of the test substance, i.e. the known number of radicals in the test substance. The radical protection factor is calculated according to the following equation: […]
The radical protection factor can be determined using an ESR spectrometer (GALENUS GmbH, Berlin, Germany), and is a value for labelling products with regard to their ability to bind free radicals. The procedure is an in-vitro procedure, in which no individual properties of the user influence the antioxidants.

Row | Compound | RPF known for standard antioxidation agents [1] | RPF (radical protection factor) ([2]; radical scavenger as such, ESR) | other results
1 | Cc1c(C)c2c(c(C)c1O)CCC(C)(CCCC(C)CCCC(C)CCCC(C)C)O2 (racemic) [DL-α-tocopherol] | 41200 ×10^14 radicals/mg |  | 
2 | CC1=C(/C=C/C(C)=C/C=C/C(C)=C/CO)C(C)(C)CCC1 [all-trans-retinol] | 827 ×10^14 radicals/mg |  | 
3 | CC(=O)OC/C=C(C)/C=C/C=C(C)/C=C/C1=C(C)CCCC1(C)C [all-trans-retinolacetate] | 196 ×10^14 radicals/mg |  | 
4 | O=C1O[C@H]([C@@H](O)CO)C([O-])=C1OP(=O)([O-])[O-].[Na+].[Na+].[Na+] [natrium-ascorbyl-phosphate] |  | 35000 ×10^14 radicals/mg | 
5 | O=C(/C=C/c1ccc(O)c(O)c1)O[C@H](Cc1ccc(O)c(O)c1)C(=O)O [rosemary acid] |  | 36000-68000 ×10^14 radicals/mg | 
6 | O=C(OC[C@H]1O[C@@H](OC(=O)c2cc(O)c(O)c(OC(=O)c3cc(O)c(O)c(O)c3)c2)[C@H](OC(=O)c2cc(O)c(O)c(OC(=O)c3cc(O)c(O)c(O)c3)c2)[C@@H](OC(=O)c2cc(O)c(O)c(OC(=O)c3cc(O)c(O)c(O)c3)c2)[C@@H]1OC(=O)c1cc(O)c(O)c(OC(=O)c2cc(O)c(O)c(O)c2)c1)c1cc(O)c(O)c(OC(=O)c2cc(O)c(O)c(O)c2)c1 [tannic acid] |  | 310000 ×10^14 radicals/mg | 
7 | CC(=O)Oc1c(C)c(C)c2c(c1C)CCC(C)(CCC[C@H](C)CCC[C@H](C)CCCC(C)C)O2 (stereo partly drawn) [α-tocopherylacetate] | 48 ×10^14 radicals/mg |  | 
8 | cyclodextrines |  |  | RPF (radical protection factor) ([2]; unit not given): 0
